For experiment [1], the system named is poly rA—poly rU; prAprU (RNA, polymer) A/U. The experiment can be described thus: fluorimetric titration, Scatchard (McGhee-von Hippel) fit. The note with it: Na+ (sodium cacodylate, I = 0.05 M); pH 7.0, 25 °C; n fixed 0.2; polynucleotide concentration as phosphates; per base.
Experiment [2] has the same test system. Put plainly: UV thermal denaturation at 260 nm. The note with it: Na+ (sodium cacodylate, I = 0.05 M); pH 7.0; r = [compound]/[polynucleotide] = 0.1; error ±0.5 °C; per base.
Experiment [3] deals with poly dAdT—poly dAdT; p(dAdT)2 (DNA, polymer) AT. The experiment can be described thus: fluorimetric titration, Scatchard (McGhee-von Hippel) fit. The note with it: Na+ (sodium cacodylate, I = 0.05 M); pH 7.0, 25 °C; n fixed 0.2; polynucleotide concentration as phosphates; per base.
Experiment [4] deals with poly dGdC—poly dGdC; p(dGdC)2 (DNA, polymer) GC. The experiment is described as above. The note with it: Na+ (sodium cacodylate, I = 0.05 M); pH 7.0, 25 °C; n fixed 0.2; polynucleotide concentration as phosphates; per base.
In experiment [5] the test system is poly dAdT—poly dAdT; p(dAdT)2 (DNA, polymer) AT. The experiment can be described thus: UV thermal denaturation at 260 nm. The note with it: Na+ (sodium cacodylate, I = 0.05 M); pH 7.0; r = [compound]/[polynucleotide] = 0.1; error ±0.5 °C; per base.
For experiment [6] the test system is unchanged. The experiment can be described thus: UV/vis titration, Scatchard (McGhee-von Hippel) fit. Conditions: Na+ (sodium cacodylate, I = 0.05 M); pH 7.0, 25 °C; n fixed 0.2; polynucleotide concentration as phosphates; per base.
The test system of experiment [7] is poly rA—poly rU; prAprU (RNA, polymer) A/U. Described as above. Conditions: Na+ (sodium cacodylate, I = 0.05 M); pH 7.0, 25 °C; n fixed 0.2; polynucleotide concentration as phosphates; per base.
For experiment [8], the system named is poly dGdC—poly dGdC; p(dGdC)2 (DNA, polymer) GC. Described as above. Conditions: Na+ (sodium cacodylate, I = 0.05 M); pH 7.0, 25 °C; n fixed 0.2; polynucleotide concentration as phosphates; per base.

As usually defined, the ΔTm is the shift of the melting midpoint relative to a reference.

As for `Cc1cc(-c2cc3ccc4cc(-c5cc(C)c(B(c6c(C)cc([N+](C)(C)C)cc6C)c6c(C)cc([N+](C)(C)C)cc6C)c(C)c5)cc5ccc(c2)c3c45)cc(C)c1B(c1c(C)cc([N+](C)(C)C)cc1C)c1c(C)cc([N+](C)(C)C)cc1C`, the logKs in experiment [1] worked out at 7.4; in experiment [3], 8.7; in experiment [4] it was 8.0. In addition, the thermal shift (ΔTm) in experiment [2] stood at 7.4 °C; in experiment [5], 9.6 °C.
Turning to `Cc1cc(-c2ccc(-c3ccc(-c4cc(C)c(B(c5c(C)cc([N+](C)(C)C)cc5C)c5c(C)cc([N+](C)(C)C)cc5C)c(C)c4)cc3)cc2)cc(C)c1B(c1c(C)cc([N+](C)(C)C)cc1C)c1c(C)cc([N+](C)(C)C)cc1C`, the logKs amounted to 6.1 in experiment [6], 7.5 in experiment [7] and 6.0 in experiment [8]. Also, the shift in melting temperature (ΔTm) turned out to be 12.1 °C in experiment [2] and 6.7 °C in experiment [5].
Consider `Cc1cc(-c2ccc3c(c2)Cc2cc(-c4cc(C)c(B(c5c(C)cc([N+](C)(C)C)cc5C)c5c(C)cc([N+](C)(C)C)cc5C)c(C)c4)ccc2-3)cc(C)c1B(c1c(C)cc([N+](C)(C)C)cc1C)c1c(C)cc([N+](C)(C)C)cc1C`, for which the logKs in experiment [1] is 7.9; in experiment [3], 6.9; in experiment [4] it was 7.4. In addition, the ΔTm came out at 9.3 °C in experiment [2] and 8.2 °C in experiment [5].

These data come from paper PMC10254923 (2023).
